Patent publication US20110065629A1, “ENTERAL NUTRIENT” (AMINO UP CHEMICAL CO., LTD., priority 2008, published 2011)

Tested on: Dendritic cells separated from the bone marrow and spleen
Experiment: External appearance of dendritic cells in plastic dishes with or without LPS
Assay type: cell-based, normal mice
Details: AHCC 5 mg/ml, β-glucan 1 mg/ml
Protocol: Dendritic cells separated from the bone marrow and spleen of normal mice were placed in plastic dishes to measure the external appearances of dendritic cells in the case of adding only LPS so as to achieve a final concentration of 5 μg/ml and in the case of adding LPS and AHCC (final concentration: 5 mg/ml) or β-glucan (final concentration: 1 mg/ml).

For β-glucan, the Cell morphology (LPS stimulation (5 μg/ml)) was “Deformation” and the Cell morphology (Normal condition) was “Spherical”.
